Eleven molecules from patent US20240116985A1, “STAPLED PEPTIDES AND METHODS THEREOF” (priority 2020, published 2024) can be followed below.

Data set [1] concerns the target T1, full-length beta-Catenin (Uniprot ID P35222) (Homo sapiens, UniProt P35222).
T1 construct: 10 nM full-length beta-Catenin (Uniprot ID P35222)
T1 sequence (P35222 1-781): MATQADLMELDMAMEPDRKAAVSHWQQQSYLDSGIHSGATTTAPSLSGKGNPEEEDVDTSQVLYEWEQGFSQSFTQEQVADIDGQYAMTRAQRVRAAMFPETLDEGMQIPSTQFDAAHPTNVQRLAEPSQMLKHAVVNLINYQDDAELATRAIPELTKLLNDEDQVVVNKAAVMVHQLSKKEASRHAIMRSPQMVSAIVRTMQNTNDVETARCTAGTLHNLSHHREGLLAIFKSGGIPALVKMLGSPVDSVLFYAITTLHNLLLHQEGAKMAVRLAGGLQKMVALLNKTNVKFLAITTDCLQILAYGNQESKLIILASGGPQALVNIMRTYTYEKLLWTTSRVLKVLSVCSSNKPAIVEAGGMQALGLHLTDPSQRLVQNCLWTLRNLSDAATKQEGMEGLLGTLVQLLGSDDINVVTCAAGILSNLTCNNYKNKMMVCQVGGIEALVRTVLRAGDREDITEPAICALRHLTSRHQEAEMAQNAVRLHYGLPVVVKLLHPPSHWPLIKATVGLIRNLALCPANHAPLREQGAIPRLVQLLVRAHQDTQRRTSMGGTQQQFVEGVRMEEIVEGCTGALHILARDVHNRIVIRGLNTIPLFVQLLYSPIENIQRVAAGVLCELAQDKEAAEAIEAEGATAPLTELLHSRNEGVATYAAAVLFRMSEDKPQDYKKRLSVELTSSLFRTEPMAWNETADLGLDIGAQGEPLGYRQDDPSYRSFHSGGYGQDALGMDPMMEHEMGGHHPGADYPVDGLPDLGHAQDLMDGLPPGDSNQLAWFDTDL
The data set is described as follows: Fluorescence polarization IC50 (beta-catenin / 5FAM-TCF4 10-53 competition). Format: binding. A general note: Fluorescence polarisation rises when a labelled molecule tumbles more slowly, as on binding a larger partner.

Another data set in a line: CHI Log D procedure. Format: physicochemical. The following applies: pH 7.4.
The nature of a further data set: Solubility in PBS. Format: physicochemical. The essentials:
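Steps: ultracentrifuge the peptide PBS solution, inject the supernatant on HPLC, inject a 50 μM peptide DMSO solution as reference, then calculate solubility as area ratio (PBS/DMSO) × 50 uM.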

The mark [2] stands for this setting: fluorescence polarization, beta-catenin, read-out: FP EC50.

Values after ≈ are worked out from the molar mass of the structure shown. Read-outs that look alike come from different tables or passages of the source.

Turning to `CCN(CC(=O)O)C[C@@H]1NC(=O)[C@H](CC(=O)O)NC(=O)C2(CCCC=CCCCOC(=O)N3CC[C@@](C(=O)N[C@@H](Cc4ccsc4)C(=O)N[C@@H](Cc4csc5ccccc45)C(=O)N[C@@H](CCC(N)=O)C(N)=O)(C3)NC(=O)[C@H]([C@@H](C)O)NC(=O)[C@H](Cc3ccccc3)NC(=O)[C@H](C)NC(=O)[C@H](C)NC1=O)CCCC=CC[C@]1(CCCN1C(C)=O)C(=O)N[C@@H](CC(=O)O)C(=O)N[C@@H](CC(C)(C)C)C(=O)N2` (stereo partly drawn) [I-968, Ac-PL3-Asp-Npg-B5-Asp-EtGA-Ala-Ala-Phe-Thr-PyrS2-3Thi-BztA-Gln-NH2], the IC50 in data set [1] (setting [2]) and in data set [1] (read-out: beta-Catenin FP IC50) was 2980 nM each time. Moreover, the “CHI Log D” value in the data set “CHI Log D procedure” was 1.752. Moreover, the Solubility – broadly, the dissolved amount per volume that the medium holds – in the data set “Solubility in PBS” is 30 µM (≈ 58.9 µg/mL).
As to `CCN(CC(=O)O)C[C@@H]1NC(=O)[C@H](CC(=O)O)NC(=O)C2(CCCC=CCCCOC(=O)N3CC[C@@](C(=O)N[C@@H](Cc4ccsc4)C(=O)N[C@@H](Cc4csc5ccccc45)C(=O)N[C@@H](CCC(N)=O)C(N)=O)(C3)NC(=O)[C@H]([C@@H](C)O)NC(=O)[C@H](Cc3ccccc3)NC(=O)[C@H](C)NC(=O)[C@H](C)NC1=O)CCCC=CC[C@]1(CCCN1C(C)=O)C(=O)N[C@@H](CC(=O)O)C(=O)N[C@@H](CC(C)(C)C)C(=O)N2` (stereo partly drawn) [I-969, Ac-PL3-Asp-Npg-B5-Asp-EtGA-Ala-Ala-Phe-Thr-PyrS2-3Thi-BztA-Gln-NH2], the IC50 in data set [1] (setting [2]) and in data set [1] (read-out: beta-Catenin FP IC50) was 2320 nM in each case. In “CHI Log D procedure”, the “CHI Log D” value is 1.851. In the data set “Solubility in PBS”, the “Solubility” value came to 46 µM (≈ 90.3 µg/mL).
Turning to `CCN(CC(=O)O)C[C@@H]1NC(=O)[C@H](CC(=O)O)NC(=O)C2(CCCC=CCCCOC(=O)N3CC[C@@](C(=O)N[C@@H](Cc4ccsc4)C(=O)N[C@@H](Cc4csc5ccccc45)C(=O)N[C@@H](CCC(N)=O)C(N)=O)(C3)NC(=O)[C@H](Cc3ccccc3)NC(=O)[C@H](Cc3ccccc3)NC(=O)[C@H](C)NC(=O)[C@H](C)NC1=O)CCCC=CC[C@]1(CCCN1C(C)=O)C(=O)N[C@@H](CC(=O)O)C(=O)N[C@@H](CC(C)(C)C)C(=O)N2` (stereo partly drawn) [I-971, Ac-PL3-Asp-Npg-B5-Asp-EtGA-Ala-Ala-Phe-Phe-PyrS2-3Thi-BztA-Gln-NH2], the IC50 in data set [1] (setting [2]) was determined as 1610 nM; in data set [1] (read-out: beta-Catenin FP IC50), 1840 nM. Further, the “CHI Log D” value in the data set “CHI Log D procedure” is given as 1.939. Further, the “Solubility” value in “Solubility in PBS” came to 10 µM (≈ 20.1 µg/mL).
On the same counts, the results for `CCN(CC(=O)O)C[C@@H]1NC(=O)[C@H](CC(=O)O)NC(=O)C2(CCCC=CCCCOC(=O)N3CC[C@@](C(=O)N[C@@H](Cc4ccsc4)C(=O)N[C@@H](Cc4csc5ccccc45)C(=O)N[C@@H](CCC(N)=O)C(N)=O)(C3)NC(=O)[C@H](CC(C)C)NC(=O)[C@H](Cc3ccccc3)NC(=O)[C@H](C)NC(=O)[C@H](C)NC1=O)CCCC=CC[C@]1(CCCN1C(C)=O)C(=O)N[C@@H](CC(=O)O)C(=O)N[C@@H](CC(C)(C)C)C(=O)N2` (stereo partly drawn) [I-972, Ac-PL3-Asp-Npg-B5-Asp-EtGA-Ala-Ala-Phe-Leu-PyrS2-3Thi-BztA-Gln-NH2] are 1820 nM, 1820 nM, 1.879 and 30 µM (≈ 59.2 µg/mL).
Turning to `CCN(CC(=O)O)C[C@@H]1NC(=O)[C@H](CC(=O)O)NC(=O)C2(CCCC=CCCCOC(=O)N3CC[C@@](C(=O)N[C@@H](Cc4ccsc4)C(=O)N[C@@H](Cc4csc5ccccc45)C(=O)N[C@@H](CO)C(N)=O)(C3)NC(=O)[C@H](CO)NC(=O)[C@H](Cc3ccccc3)NC(=O)[C@H](C)NC(=O)[C@H](C)NC1=O)CCCC=CC[C@]1(CCCN1C(C)=O)C(=O)N[C@@H](CC(=O)O)C(=O)N[C@@H](CC(C)(C)C)C(=O)N2` (stereo partly drawn) [I-974, Ac-PL3-Asp-Npg-B5-Asp-EtGA-Ala-Ala-Phe-Ser-PyrS2-3Thi-BztA-Ser-NH2], the IC50 in data set [1] (setting [2]) and in data set [1] (read-out: beta-Catenin FP IC50) was 1780 nM each time. The “CHI Log D” value in “CHI Log D procedure” amounted to 1.857. Further, the “Solubility” value in “Solubility in PBS” was determined as 10 µM (≈ 19.1 µg/mL).
Take `CCN(CC(=O)O)C[C@@H]1NC(=O)[C@H](CC(=O)O)NC(=O)C2(CCCC=CCCCOC(=O)N3CC[C@@](C(=O)N[C@@H](Cc4ccsc4)C(=O)N[C@@H](Cc4csc5ccccc45)C(=O)N[C@@H](CO)C(N)=O)(C3)NC(=O)[C@H](CO)NC(=O)[C@H](Cc3ccccc3)NC(=O)[C@H](C)NC(=O)[C@H](C)NC1=O)CCCC=CC[C@]1(CCCN1C(C)=O)C(=O)N[C@@H](CC(=O)O)C(=O)N[C@@H](CC(C)(C)C)C(=O)N2` (stereo partly drawn) [I-975, Ac-PL3-Asp-Npg-B5-Asp-EtGA-Ala-Ala-Phe-Ser-PyrS2-3Thi-BztA-Ser-NH2]: the IC50 in data set [1] (setting [2]) was 1710 nM; in data set [1] (read-out: beta-Catenin FP IC50) it was 2240 nM. Besides, in the data set “CHI Log D procedure”, the “CHI Log D” value came out at 1.952. The “Solubility” value in the data set “Solubility in PBS” was 46 µM (≈ 87.7 µg/mL).
For `CC(=O)N1CCC[C@]12CC=CCCCC1(CCCC=CCCCOC(=O)N3CC[C@@](C(=O)N[C@@H](Cc4ccsc4)C(=O)N[C@@H](Cc4csc5ccccc45)C(=O)N[C@@H](CCC(N)=O)C(N)=O)(C3)NC(=O)[C@H](CC(N)=O)NC(=O)[C@H](Cc3ccccc3)NC(=O)[C@H](C)NC(=O)[C@H](C)NC(=O)[C@H](Cc3cccc(C(=O)O)c3)NC(=O)[C@H](CC(=O)O)NC1=O)NC(=O)[C@H](CC(C)(C)C)NC(=O)[C@H](CC(=O)O)NC2=O` (stereo partly drawn) [I-976, Ac-PL3-Asp-Npg-B5-Asp-3COOHF-Ala-Ala-Phe-Asn-PyrS2-3Thi-BztA-Gln-NH2], the IC50 in data set [1] (setting [2]) and in data set [1] (read-out: beta-Catenin FP IC50) was 399 nM throughout. Besides, the “CHI Log D” value in the data set “CHI Log D procedure” is on record as 1.78. In the data set “Solubility in PBS”, the “Solubility” value was found to be 50 µM (≈ 99.7 µg/mL).
Turning to `CC(=O)N1CCC[C@]12CC=CCCCC1(CCCC=CCCCOC(=O)N3CC[C@@](C(=O)N[C@@H](Cc4ccsc4)C(=O)N[C@@H](Cc4csc5ccccc45)C(=O)N[C@@H](CCC(N)=O)C(N)=O)(C3)NC(=O)[C@H](CC(N)=O)NC(=O)[C@H](Cc3ccccc3)NC(=O)[C@H](C)NC(=O)[C@H](C)NC(=O)[C@H](Cc3cccc(C(=O)O)c3)NC(=O)[C@H](CC(=O)O)NC1=O)NC(=O)[C@H](CC(C)(C)C)NC(=O)[C@H](CC(=O)O)NC2=O` (stereo partly drawn) [I-977, Ac-PL3-Asp-Npg-B5-Asp-3COOHF-Ala-Ala-Phe-Asn-PyrS2-3Thi-BztA-Gln-NH2], the IC50 in data set [1] (setting [2]) was determined as 367 nM; in data set [1] (read-out: beta-Catenin FP IC50) it was 875 nM. Besides, the “CHI Log D” value in the data set “CHI Log D procedure” was 1.87. Besides, in “Solubility in PBS”, the “Solubility” value amounted to 46 µM (≈ 91.7 µg/mL).
For the molecule `CC(=O)N1CCC[C@]12CC=CCCCC1(CCCC=CCCCOC(=O)N3CC[C@@](C(=O)N[C@@H](Cc4ccsc4)C(=O)N[C@@H](Cc4csc5ccccc45)C(=O)N[C@@H](CCC(N)=O)C(N)=O)(C3)NC(=O)[C@H]([C@@H](C)O)NC(=O)[C@H](Cc3ccccc3)NC(=O)[C@H](C)NC(=O)[C@H](C)NC(=O)[C@H](Cc3cccc(C(=O)O)c3)NC(=O)[C@H](CC(=O)O)NC1=O)NC(=O)[C@H](CC(C)(C)C)NC(=O)[C@H](CC(=O)O)NC2=O` (stereo partly drawn) [I-980, Ac-PL3-Asp-Npg-B5-Asp-3COOHF-Ala-Ala-Phe-Thr-PyrS2-3Thi-BztA-Gln-NH2], the IC50 in data set [1] (setting [2]) and in data set [1] (read-out: beta-Catenin FP IC50) was 221 nM throughout. Moreover, in the data set “CHI Log D procedure”, the “CHI Log D” value was 1.695. Moreover, the “Solubility” value in “Solubility in PBS” amounted to 19 µM (≈ 37.6 µg/mL).
Turning to `CC(=O)N1CCC[C@]12CC=CCCCC1(CCCC=CCCCOC(=O)N3CC[C@@](C(=O)N[C@@H](Cc4ccsc4)C(=O)N[C@@H](Cc4csc5ccccc45)C(=O)N[C@@H](CCC(N)=O)C(N)=O)(C3)NC(=O)[C@H]([C@@H](C)O)NC(=O)[C@H](Cc3ccccc3)NC(=O)[C@H](C)NC(=O)[C@H](C)NC(=O)[C@H](Cc3cccc(C(=O)O)c3)NC(=O)[C@H](CC(=O)O)NC1=O)NC(=O)[C@H](CC(C)(C)C)NC(=O)[C@H](CC(=O)O)NC2=O` (stereo partly drawn) [I-981, Ac-PL3-Asp-Npg-B5-Asp-3COOHF-Ala-Ala-Phe-Thr-PyrS2-3Thi-BztA-Gln-NH2], the IC50 worked out at 199 nM in data set [1] (setting [2]) and 374 nM in data set [1] (read-out: beta-Catenin FP IC50). For the same molecule, in “CHI Log D procedure”, the “CHI Log D” value is reported as 1.761. The “Solubility” value in the data set “Solubility in PBS” came out at 45 µM (≈ 89.2 µg/mL).
The like results for `CC(=O)N1CCC[C@]12CC=CCCCC1(CCCC=CCCCOC(=O)N3CC[C@@](C(=O)N[C@@H](Cc4ccsc4)C(=O)N[C@@H](Cc4csc5ccccc45)C(=O)N[C@@H](CO)C(N)=O)(C3)NC(=O)[C@H](Cc3ccccc3)NC(=O)[C@H](Cc3ccccc3)NC(=O)[C@H](C)NC(=O)[C@H](C)NC(=O)[C@H](Cc3cccc(C(=O)O)c3)NC(=O)[C@H](CC(=O)O)NC1=O)NC(=O)[C@H](CC(C)(C)C)NC(=O)[C@H](CC(=O)O)NC2=O` (stereo partly drawn) [I-982, Ac-PL3-Asp-Npg-B5-Asp-3COOHF-Ala-Ala-Phe-Phe-PyrS2-3Thi-BztA-Ser-NH2] were, in that order, 190 nM, 190 nM, 1.853 and 16 µM (≈ 31.8 µg/mL).
